# Test results from patent US7410974B2, “Halogenated Quinazolinyl nitrofurans as antibacterial agents” (Ulysses Pharmaceutical Products, Inc., priority 2003, dated 2008).
# Like-named read-outs stand apart in the source and are kept apart here.
# Assays:
# MRSA strain Sa228c = assay: MIC broth microdilution, antibiotic resistant strain panel; assay type: cell-based, Staphylococcus aureus; conditions: Staphylococcus aureus; multi-resistant MRSA strain Sa228c; read-out: MIC
# Method: (§1) Minimal Inhibitory Concentration (MIC) Determination. Bacteria (primary strain panel, TABLE 1). Susceptibility tests were performed following the recommendations from the National Committee for Clinical Standards (NCCLS). The MICs were determined by a broth microdilution technique using a final volume of 100 μl of cation-adjusted Mueller Hinton Broth (MHBCA) and a bacterial inoculum of 10^5-10^6 Colony Forming Units (CFU)/ml. The inocula were verified and precisely determined by applying 10-μl drops of 10-fold dilutions onto Triptic Soy Agar plates. The CFU were counted after an incubation of 24 h at 35° C. Any experiment showing an inoculum that was more or less than 10^5-10^6 CFU/ml was rejected. Control antibiotics and test compounds were prepared at a concentration equivalent to 2-fold the highest desired final concentration. Compounds were then diluted directly in the 96-well microtiter plates by serial 2-fold dilutions using a multichannel pipette. Microtiter plates were incubated during 24 h at 35° C. and growth was recorded by using a microtiterplate reader at 650 nm as well as by visual observation. The MIC was defined as the lowest concentration of compound yielding no visible growth. […] Fastidious bacteria. The medium used for Listeria monocytogenes, Neisseria meningitidis, and Campylobacter jejuni was MHBCA containing 2% laked horse blood. The medium used for Haemophilus influenzae and Branhamella (Moraxella) catarrhalis was HTM as recommended by the NCCLS. Cultures of these fastidious bacteria were incubated at 35° C. in a 5% CO2 atmosphere. […] The medium used for Bacteroides fragilis was Wilkins Chalgren broth and growth was allowed under an anaerobic atmosphere at 35° C. for 48 hours.
# (§2) Finally, compounds were also tested against populations of various clinical strains (antibiotic resistant strain panel, TABLE 1).
# MRSA strain Sa212c = assay: as above; assay type: cell-based, Staphylococcus aureus; conditions: Staphylococcus aureus; multi-resistant MRSA strain Sa212c; read-out: MIC
# Method: as §1, §2
# MRSA strain Sa224c = assay: as above; assay type: cell-based, Staphylococcus aureus; conditions: Staphylococcus aureus; multi-resistant MRSA strain Sa224c; read-out: MIC
# Method: as §1, §2
# MRSA strain Sa211c = assay: as above; assay type: cell-based, Staphylococcus aureus; conditions: Staphylococcus aureus; multi-resistant MRSA strain Sa211c; read-out: MIC
# Method: as §1, §2
# MRSA strain Sa248c = assay: as above; assay type: cell-based, Staphylococcus aureus; conditions: Staphylococcus aureus; multi-resistant MRSA strain Sa248c; read-out: MIC
# Method: as §1, §2
# MRSA strain Sa249c = assay: as above; assay type: cell-based, Staphylococcus aureus; conditions: Staphylococcus aureus; multi-resistant MRSA strain Sa249c; read-out: MIC
# Method: as §1, §2
# MRSA strain Sa220c = assay: as above; assay type: cell-based, Staphylococcus aureus; conditions: Staphylococcus aureus; multi-resistant MRSA strain Sa220c; read-out: MIC
# Method: as §1, §2
# MRSA strain Sa234c = assay: as above; assay type: cell-based, Staphylococcus aureus; conditions: Staphylococcus aureus; multi-resistant MRSA strain Sa234c; read-out: MIC
# Method: as §1, §2
# MRSA strain Sa253c = assay: as above; assay type: cell-based, Staphylococcus aureus; conditions: Staphylococcus aureus; multi-resistant MRSA strain Sa253c; read-out: MIC
# Method: as §1, §2
# [1] = system: S. epidermidis ATCC 12228; assay: MIC broth microdilution (NCCLS); assay type: cell-based, Staphylococcus epidermidis; conditions: Staphylococcus epidermidis, ATCC12228; S. epidermidis ATCC 12228; read-out: MIC
# Method: as §1
# S. aureus ATCC 29213 = assay: MIC broth microdilution (NCCLS); assay type: cell-based, Staphylococcus aureus; conditions: Staphylococcus aureus, ATCC29213; S. aureus ATCC 29213; read-out: MIC
# Method: as §1
# B. catarrhalis ATCC 8176 [2] = assay: MIC broth microdilution (NCCLS), fastidious bacteria; assay type: cell-based, Branhamella (Moraxella) catarrhalis; conditions: Moraxella catarrhalis, ATCC8176, HTM, 5% CO2
# Method: as §1
# H. influenzae ATCC 49247 [3] = assay: Minimal Bactericidal Concentration (MBC); assay type: cell-based; conditions: Haemophilus influenzae, ATCC49247, 99.9% killing
# Method: (§3) Minimal Bactericidal Concentration (MBC). After the microtiter plates were read for the determination of the MIC, a 10-μl sample of each clear well (at least 5 wells without visible growth) was applied onto TSA plates for viable counts determination.
# (§4) Petri dishes were incubated at 35° C. for exactly 24 h and bacterial colonies were counted.
# H. influenzae ATCC 49766 [4] = assay: Minimal Bactericidal Concentration (MBC); assay type: cell-based; conditions: Haemophilus influenzae, ATCC49766, 99.9% killing
# Method: as §3, §4
# [5] = system: S. saprophyticus ATCC 15305; assay: MIC broth microdilution (NCCLS); assay type: cell-based, Staphylococcus saprophyticus; conditions: Staphylococcus saprophyticus, ATCC15305; S. saprophyticus ATCC 15305; read-out: MIC
# Method: as §1
# S. aureus MRSA COL = assay: MIC broth microdilution (NCCLS); assay type: cell-based, Staphylococcus aureus; conditions: Staphylococcus aureus, MRSA, S. aureus MRSA COL; read-out: MIC
# Method: as §1, with “hours. […]” for “hours.”
# E. faecalis ATCC 29212 = assay: MIC broth microdilution (NCCLS); assay type: cell-based, Enterococcus faecalis; conditions: Enterococcus faecalis, ATCC29212; E. faecalis ATCC 29212; read-out: MIC
# Method: as §1
# B. catarrhalis ATCC 8176 [6] = assay: Minimal Bactericidal Concentration (MBC); assay type: cell-based, Branhamella (Moraxella) catarrhalis; conditions: Moraxella catarrhalis, ATCC8176, 99.9% killing
# Method: as §3, §4
# E. coli ATCC 25922 = assay: MIC broth microdilution (NCCLS); assay type: cell-based, Escherichia coli
# Method: as §1
# E. faecium ATCC 35667 = assay: MIC broth microdilution (NCCLS); assay type: cell-based, Enterococcus faecium; conditions: Enterococcus faecium, ATCC35667, E. faecium ATCC 35667; read-out: MIC
# Method: as §1
# H. influenzae ATCC 49247 [7] = assay: MIC broth microdilution (NCCLS), fastidious bacteria; assay type: cell-based; conditions: Haemophilus influenzae, ATCC49247, HTM, 5% CO2
# Method: as §1
# H. influenzae ATCC 49766 [8] = assay: as above; assay type: cell-based; conditions: Haemophilus influenzae, ATCC49766, HTM, 5% CO2
# Method: as §1
# A. baumannii ATCC 19606 = assay: MIC broth microdilution (NCCLS); assay type: cell-based, Acinetobacter baumannii; conditions: Acinetobacter baumannii, ATCC19606, read-out: MIC
# Method: as §1
# [9] = system: E. coli ATCC 35150 (O157:H7); assay: MIC broth microdilution, E. coli strains; assay type: cell-based; conditions: Escherichia coli, ATCC35150
# Method: as §1, §2
# E. coli Ec027c (EIEC) = assay: MIC broth microdilution, E. coli strains; assay type: cell-based; conditions: Escherichia coli, pathotype EIEC
# Method: as §1, §2
# E. coli Ec117c (EIEC) = assay: MIC broth microdilution, E. coli strains; assay type: cell-based; conditions: Escherichia coli, pathotype EIEC
# Method: as §1, §2
# E. coli Ec119c (EIEC) = assay: MIC broth microdilution, E. coli strains; assay type: cell-based; conditions: Escherichia coli, pathotype EIEC
# Method: as §1, §2
# E. coli Ec022c (EIEC) = assay: MIC broth microdilution, E. coli strains; assay type: cell-based; conditions: Escherichia coli, pathotype EIEC
# Method: as §1, §2
# [10] = system: E. coli d25-ALR-pen14 (O157:H7); assay: MIC broth microdilution, E. coli strains; assay type: cell-based; conditions: Escherichia coli
# Method: as §1, §2
# E. coli Ec118c (EIEC) = assay: MIC broth microdilution, E. coli strains; assay type: cell-based; conditions: Escherichia coli, pathotype EIEC
# Method: as §1, §2
# [11] = system: E. coli d4-OLR-pen10 (O157:H7); assay: MIC broth microdilution, E. coli strains; assay type: cell-based; conditions: Escherichia coli
# Method: as §1, §2
# B. fragilis ATCC 25285 = assay: MIC broth microdilution (NCCLS), anaerobic; assay type: cell-based; conditions: Bacteroides fragilis, ATCC25285; B. fragilis ATCC 25285; Wilkins Chalgren broth, anaerobic, 48 hours; read-out: MIC
# Method: as §1
# [12] = system: Y. enterocolytica ATCC 23715; assay: MIC broth microdilution (NCCLS); assay type: cell-based, Yersinia enterocolytica; conditions: Yersinia, ATCC23715, read-out: MIC
# Method: as §1
# [13] = Escherichia coli, ATCC25922, E. coli ATCC 25922 (Reference), read-out: MIC
compound,measurement,setting,value
CC[C@H]1OC(=O)[C@H](C)[C@@H](O[C@H]2C[C@@](C)(OC)[C@@H](O)[C@H](C)O2)[C@H](C)[C@@H](O[C@@H]2O[C@H](C)C[C@H](N(C)C)[C@H]2O)[C@](C)(O)C[C@@H](C)C(=O)[C@H](C)[C@@H](O)[C@]1(C)O [Erythromycin],MIC,MRSA strain Sa228c,> 32 µg/mL
same,MIC,MRSA strain Sa212c,> 32 µg/mL
same,MIC,MRSA strain Sa224c,> 32 µg/mL
same,MIC,MRSA strain Sa211c,> 32 µg/mL
same,MIC,MRSA strain Sa248c,> 128 µg/mL
same,MIC,MRSA strain Sa249c,> 128 µg/mL
same,MIC,MRSA strain Sa220c,0.5 µg/mL
same,MIC,MRSA strain Sa234c,> 32 µg/mL
same,MIC,MRSA strain Sa253c,> 128 µg/mL
same,MIC,[1],0.5 µg/mL
same,MIC,S. aureus ATCC 29213,0.5 µg/mL
same,MIC,B. catarrhalis ATCC 8176 [2],0.06 µg/mL
same,MBC,H. influenzae ATCC 49247 [3],2 µg/mL
same,MBC,H. influenzae ATCC 49766 [4],16 µg/mL
same,MIC,[5],0.25 µg/mL
same,MIC,S. aureus MRSA COL,0.25 µg/mL
same,MIC,E. faecalis ATCC 29212,2 to 4 µg/mL
same,MBC,B. catarrhalis ATCC 8176 [6],0.12 µg/mL
same,MIC,E. coli ATCC 25922; [13],64 µg/mL
same,MIC,E. faecium ATCC 35667,2 µg/mL
same,MIC,H. influenzae ATCC 49247 [7],2 µg/mL
same,MIC,H. influenzae ATCC 49766 [8],8 µg/mL
CN(C)[C@@H]1C(O)=C(C(N)=O)C(=O)[C@@]2(O)C(O)=C3C(=O)c4c(O)cccc4[C@@](C)(O)[C@H]3C[C@@H]12 [Tetracycline],MIC,A. baumannii ATCC 19606,16 µg/mL
same,MIC,[9],2 µg/mL
same,MIC,E. coli Ec027c (EIEC),> 32 µg/mL
same,MIC,E. coli Ec117c (EIEC),> 32 µg/mL
same,MIC,E. coli Ec119c (EIEC),> 32 µg/mL
same,MIC,E. coli Ec022c (EIEC),2 µg/mL
same,MIC,[10],> 32 µg/mL
same,MIC,E. coli Ec118c (EIEC),4 µg/mL
same,MIC,[11],> 32 µg/mL
same,MIC,S. aureus ATCC 29213,0.5 to 1 µg/mL
same,MIC,[5],1 µg/mL
same,MIC,S. aureus MRSA COL,2 µg/mL
same,MIC,B. fragilis ATCC 25285,0.25 µg/mL
same,MIC,E. faecalis ATCC 29212,16 to 32 µg/mL
same,MIC,[12],> 32 µg/mL
same,MIC,E. coli ATCC 25922; E. coli ATCC 25922 (Reference),2 µg/mL
same,MIC,E. coli ATCC 25922; [13],1 to 2 µg/mL
